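Each compound was tested at five concentrations against cells in 96-well plates for 48 hours. GI50: concentration for 50% inhibition of growth. The concentration for full growth arrest is given as TGI.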
Legend:
Experiment in all cases: growth of human tumour cells (NCI), 48 h
786-0 renal = system: 786-0 renal
DU-145 prostate = system: DU-145 prostate
HCC-2998 colon = system: HCC-2998 colon
LOX IMVI melanoma = system: LOX IMVI melanoma
MDA-MB-435 = system: MDA-MB-435
MDA-N = system: MDA-N
NCI-H23 lung = system: NCI-H23 lung
OVCAR-4 ovarian = system: OVCAR-4 ovarian
SF-539 CNS = system: SF-539 CNS

Row | Structure (SMILES) | TGI (786-0 renal) | TGI (DU-145 prostate) | TGI (HCC-2998 colon) | TGI (LOX IMVI melanoma) | TGI (MDA-MB-435) | TGI (MDA-N) | TGI (NCI-H23 lung) | TGI (OVCAR-4 ovarian) | TGI (SF-539 CNS) | GI50 (LOX IMVI melanoma)
1 | Cn1c(=O)c2c(nc(NCCCCl)n2CC(=O)O)n(C)c1=O | > 100 µM | > 100 µM | > 100 µM | > 100 µM | > 100 µM | > 100 µM | > 100 µM | > 100 µM | – | –
2 | Cc1cn(C2CC(n3cc(Cn4cc(F)c(=O)[nH]c4=O)nn3)C(CO)O2)c(=O)[nH]c1=O (stereo not drawn) | > 100 µM | > 100 µM | > 100 µM | > 100 µM | > 100 µM | > 100 µM | > 100 µM | > 100 µM | > 100 µM | –
3 | N=C(N)SCCON1C(=O)c2ccccc2C1=O | > 100 µM | > 100 µM | – | > 100 µM | > 100 µM | > 100 µM | > 100 µM | > 100 µM | > 100 µM | –
4 | Cn1ccnc1S/C(=C\C=C(C#N)C#N)c1ccc(Cl)cc1 | 5.21 µM | 10.9 µM | 9.54 µM | 0.443 µM | 2.45 µM | – | 5.31 µM | > 17.9 µM | 6.58 µM | 0.0671 µM
5 | CC(=O)O/C=C\OC1CCCC1(c1ccccc1)c1ccccc1 (stereo not drawn) | 7.75 µM | 13.7 µM | 24.3 µM | 3.14 µM | 4.11 µM | 5 µM | 8.11 µM | 7.25 µM | 3.68 µM | –
6 | Brc1ccc(N=NN2CCCCC2)cc1 | > 100 µM | > 100 µM | – | > 100 µM | > 100 µM | > 100 µM | > 100 µM | > 100 µM | > 100 µM | –
7 | Cc1ccc(S(=O)(=O)N/C(=C\C=C\c2ccccc2)C(=O)C(C)(C)C)cc1 | 73.6 µM | > 100 µM | > 100 µM | > 100 µM | > 100 µM | > 100 µM | > 100 µM | > 100 µM | > 100 µM | –
8 | CC(C)Oc1c(-c2c(OC(C)C)c(=O)c2=O)c(=O)c1=O | > 66 µM | > 100 µM | > 100 µM | > 47.1 µM | > 41.6 µM | > 38.6 µM | > 75.6 µM | > 62.9 µM | > 100 µM | –
9 | CCC(CCCN)Nc1cc(OC)cc2cccnc12 (stereo not drawn) | > 100 µM | > 100 µM | 52.7 µM | > 100 µM | > 100 µM | > 100 µM | – | > 100 µM | > 100 µM | –
10 | CCC(C)[C@H](NC(=O)N[C@H](C)c1ccccc1)C(=O)OC (stereo partly drawn) | > 100 µM | > 100 µM | > 100 µM | > 100 µM | > 100 µM | > 100 µM | > 100 µM | > 100 µM | > 100 µM | –
11 | COC(=O)c1cc(C)ccc1CC(Cc1cccc(C)c1)C(=O)OC (stereo not drawn) | > 100 µM | > 100 µM | > 100 µM | > 100 µM | > 100 µM | > 100 µM | > 100 µM | > 100 µM | > 100 µM | –
12 | COC(=O)Cc1ccc2c(c1)Sc1ccc(CC(=O)OC)cc1N2C | > 100 µM | > 100 µM | > 100 µM | > 57.1 µM | > 100 µM | – | > 77.9 µM | > 100 µM | > 100 µM | –
13 | CCN1CC(C)Cn2c(=O)[nH]c3cc(Br)cc1c32 (stereo not drawn) | > 100 µM | > 100 µM | > 100 µM | > 100 µM | 9.74 µM | 51.8 µM | > 100 µM | > 100 µM | > 100 µM | –
14 | Cc1c(C)c(C)c(-n2[nH]c(=O)n(C)c2=O)c(C)c1C | > 100 µM | > 100 µM | – | > 100 µM | > 100 µM | > 100 µM | > 100 µM | – | > 100 µM | –
15 | CC(C)CCCC(C)[C@H]1CCC2[C@@H]3CCC4Cc5nc6c(nc5C[C@]4(C)C3CC[C@@]21C)CC1CC[C@@H]2C(C[C@@H](O)[C@@]3(C)C2C[C@@H]2OC4(CCC(C)CO4)C(C)[C@@H]23)[C@@]1(C)C6 (stereo partly drawn) | > 100 µM | > 100 µM | > 100 µM | – | > 100 µM | > 100 µM | > 100 µM | > 100 µM | > 100 µM | –
16 | O=c1[nH]nc(Cc2ccccc2)n1/N=C/c1c[nH]c2ccccc12 | > 100 µM | > 100 µM | > 100 µM | > 100 µM | > 100 µM | > 100 µM | > 100 µM | > 100 µM | > 100 µM | –
17 | CCN(CC)Cc1nc2sc3c(c2c(=O)n1-c1ccccc1)CCCC3 | 32.2 µM | 47.8 µM | 33.6 µM | 28.7 µM | – | 58 µM | 81.2 µM | 97.4 µM | – | –
18 | CC1(C)OC2OC(COC(=O)C=[N+]=[N-])C3OC(C)(C)OC3C2O1 (stereo not drawn) | > 100 µM | > 100 µM | > 100 µM | > 100 µM | > 100 µM | > 100 µM | > 100 µM | > 100 µM | – | –
19 | O=C(NCCN(CCNC(=O)c1cccc(=O)n1O)CCN(CCNC(=O)c1cccc(=O)n1O)CCNC(=O)c1cccc(=O)n1O)c1cccc(=O)n1O | > 100 µM | > 100 µM | > 100 µM | > 100 µM | > 100 µM | > 100 µM | > 100 µM | > 100 µM | > 100 µM | –
20 | CN1CC2=C(OC(N)=C(C#N)C2c2cccs2)/C(=C/c2cccs2)C1 (stereo not drawn) | > 69.9 µM | 81.7 µM | > 100 µM | > 63.3 µM | 22.5 µM | > 47.3 µM | > 100 µM | 39.4 µM | > 100 µM | –
21 | COC(=O)CCCc1ccc2c(c1)CC1(C2)Cc2cc3c(cc2C1)CCCC3 | > 100 µM | – | 74.5 µM | 72.1 µM | 40.3 µM | 42.3 µM | > 100 µM | > 100 µM | > 100 µM | –
22 | CSc1nc(NC2CCCC2)c2cc[nH]c2n1 | > 100 µM | > 100 µM | > 100 µM | > 100 µM | > 100 µM | > 100 µM | > 100 µM | > 100 µM | > 100 µM | –
23 | CC(C)(CN)CN | > 100 µM | > 100 µM | > 100 µM | > 100 µM | > 100 µM | > 100 µM | > 100 µM | > 100 µM | > 100 µM | –
24 | CCNC(=O)Nc1cccc(C)n1 | > 100 µM | > 100 µM | > 100 µM | – | > 100 µM | > 100 µM | > 100 µM | > 100 µM | > 100 µM | –

From PubChem BioAssay (NCI)
